Read-outs that look alike come from different tables or passages of the source.
How the values were obtained:
[1] = Toxicity to KHYG-1 NK cells (Trypan blue exclusion); format: cell-based, human; conditions: human, viability after 24 h; for viability at 4 h, 20 µM: 4 h exposure, Trypan blue, ± SEM
Description: (§1) The toxicity assay was carried out in exactly the same manner as the killing assay above, but instead of adding the labeled K562 target cells, 100 μL of RPMI 0.1% BSA was added. Cells were incubated for 4 h at 37 °C and then washed ×3 in RPMI + 0.1% BSA. […] Trypan blue was added to each well. Viable (clear) cells and total (clear + blue) cells were counted, and the percentage of viable cells was calculated compared to DMSO treated cell control (% viability).

[2] = target: T1, purified recombinant perforin (Mus musculus, UniProt P10820); test: cell-based; format: cell-based; conditions: lysis of Jurkat cells by purified recombinant perforin, 51Cr release, 0.1% BSA; average of at least three determinations; read-out: inhibition of Jurkat cell lysis, IC50
T1 sequence (P10820 21-554): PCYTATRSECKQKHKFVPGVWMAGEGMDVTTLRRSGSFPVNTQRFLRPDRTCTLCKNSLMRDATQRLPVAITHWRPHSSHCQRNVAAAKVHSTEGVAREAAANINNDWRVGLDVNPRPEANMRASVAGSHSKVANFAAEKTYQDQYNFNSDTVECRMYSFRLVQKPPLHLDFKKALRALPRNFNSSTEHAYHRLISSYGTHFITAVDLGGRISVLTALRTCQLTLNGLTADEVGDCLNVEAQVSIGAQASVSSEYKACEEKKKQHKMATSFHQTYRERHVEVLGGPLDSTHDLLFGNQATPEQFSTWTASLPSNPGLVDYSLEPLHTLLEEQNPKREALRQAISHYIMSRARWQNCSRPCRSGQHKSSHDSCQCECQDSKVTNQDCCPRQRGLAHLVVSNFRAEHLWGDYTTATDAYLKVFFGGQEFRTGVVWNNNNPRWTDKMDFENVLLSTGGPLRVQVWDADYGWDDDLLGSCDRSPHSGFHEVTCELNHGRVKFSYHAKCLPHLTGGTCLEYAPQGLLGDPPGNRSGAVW
Description: The ability of the compounds to inhibit the lysis of nucleated (Jurkat T lymphoma) cells in the presence of 0.1% BSA was measured by release of ^51Cr label. Jurkat target cells were labeled by incubation in medium with 100 μCi ^51Cr for 1 h. The cells were then washed three times to remove unincorporated isotope and resuspended at 1 × 10^5 cells per milliliter in RPMI buffer supplemented with 0.1% BSA. […] Each data point was performed in triplicate, and an IC50 was calculated from the range of concentrations described above.

[3] = target: T2, perforin produced by an intact NK cell line (KHYG-1) (Homo sapiens, UniProt P14222); test: KHYG-1 cytotoxicity assay: perforin-induced lysis of K562 target cells co-incubated with KHYG-1 NK cells; format: cell-based; conditions: for inhibition at 5 µM: KHYG-1
T2 construct: the perforin is delivered by a functional NK cell; endogenous in cells; host or cells: KHYG-1 NK cells (K562 target cells)
T2 sequence (P14222 22-555): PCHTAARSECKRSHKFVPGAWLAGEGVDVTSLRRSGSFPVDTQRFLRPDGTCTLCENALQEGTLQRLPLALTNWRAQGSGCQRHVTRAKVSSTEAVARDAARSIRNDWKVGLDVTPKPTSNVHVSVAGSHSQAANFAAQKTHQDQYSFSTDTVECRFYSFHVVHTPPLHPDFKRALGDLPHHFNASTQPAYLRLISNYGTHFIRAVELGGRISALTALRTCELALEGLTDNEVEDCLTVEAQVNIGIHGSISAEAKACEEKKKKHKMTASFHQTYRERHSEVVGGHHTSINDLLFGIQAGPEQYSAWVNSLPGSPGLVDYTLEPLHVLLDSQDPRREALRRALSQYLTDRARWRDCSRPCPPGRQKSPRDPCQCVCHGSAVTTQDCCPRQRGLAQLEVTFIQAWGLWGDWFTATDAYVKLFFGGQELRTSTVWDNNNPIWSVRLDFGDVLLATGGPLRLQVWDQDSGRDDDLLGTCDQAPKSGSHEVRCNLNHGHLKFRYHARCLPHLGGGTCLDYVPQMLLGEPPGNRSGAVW
Description: KHYG-1 cells were washed and resuspended in RPMI + 0.1% BSA at 4 × 10^5 cells/mL, and an amount of 50 μL of KHYG-1 cells was dispensed to each well of a 96-well V-bottom plate. RPMI (50 μL) + 0.1% BSA or 10% (final concentration) of serum was added to each well. Then test compounds were added to KHYG-1 cells at various concentrations up to 20 μM and incubated at room temperature for 20 min. 1 × 10^6 K562 target cells were labeled with 75 μCi ^51Cr in 200 μL of RPMI for 90 min at 37 °C. Cells were washed as described above and resuspended in 5 mL of RPMI + 0.1% BSA. […] The percentage of specific cytotoxicity was calculated using the following formula: [drawing 4] and expressed as the mean of triplicate assays ± standard error of the mean.

[4] = tested on: KHYG-1 NK cells; test: Toxicity to KHYG-1 NK cells (Trypan blue exclusion); format: cell-based, human; conditions: 5 μM, viability after 24 h
Description: as §1

[5] = target: T3, perforin delivered by primary human natural killer cells to HeLa cells (Homo sapiens, UniProt P14222); test: Time-lapse microscopy of the cytotoxic immunological synapse (primary NK cells and HeLa targets); format: cell-based; conditions: 20 μM, primary human NK cells, HeLa targets
T3 construct: degranulation and the release of perforin into the synaptic cleft; endogenous in cells; host or cells: primary human NK cells from peripheral blood of four donors (HeLa target cells)
T3 sequence (P14222 22-555): T2 sequence (P14222 22-555)
Description: Time-lapse microscopy and image analysis were performed as described previously.[42] In brief, primary human natural killer cells were isolated from the peripheral blood of four unrelated donors using negative selection, as described in the above reference. […] All experiments were performed at 37 °C/5% CO2.

Row | Compound | viability at 4 h, 20 µM ([1]; KHYG-1 NK cells) | IC50 [2] | inhibition at 20 µM ([3]; 20 μM, 10% mouse serum, K562 targets, ± SEM, read-out: KHYG-1 inhibition (% at 20 μM), 10% serum) | inhibition at 20 µM ([3]; 20 μM, no serum, K562 targets, vs untreated control, ± SEM, read-out: KHYG-1 inhibition (% at 20 μM), no serum) | KHYG-1 viability [4] | viability at 4 h, 5 µM ([1]; KHYG-1 NK cells, 5 μM) | viability at 4 h, 20 µM [1] | inhibition at 5 µM ([3]; 10% mouse serum, read-out: KHYG-1 inhibition, 10% serum) | inhibition at 5 µM ([3]; no serum, read-out: KHYG-1 inhibition, no serum) | inhibition at 20 µM ([3]; read-out: KHYG-1 inhibition (% at 20 μM), 10% serum) | inhibition at 20 µM ([3]; read-out: KHYG-1 inhibition (% at 20 μM), no serum) | synapses in which formation of the perforin pore was blocked [5] | killer cells that delivered functional perforin to the target ([5]; DMSO control: every cell)
1 | CC1c2cc(-c3ccc(/C=C4/NC(=S)NC4=O)s3)ccc2C(=O)N1C (centres unmarked) [compound 135, (E,Z)-2,3-Dimethyl-5-(5-((5-oxo-2-thioxoimidazolidin-4-ylidene)methyl)thiophen-2-yl)isoindolin-1-one] | 74 ± 8.3% | 3210 nM | 67 ± 6.1% | 90 ± 4% |  |  |  |  |  |  |  |  | 
2 | O=C1NC(=S)N/C1=C/c1ccc(-c2ccc3c(c2)CCNC3=O)s1 [compound 167] |  | 1140 nM |  |  | lack of NK toxicity | 82 ± 3.6% | 38 ± 7.8% | 34 ± 6.4% | 51 ± 4.2% | 81 ± 5.3% | 83 ± 4.6% | 40% | 60%
